The source of these data is patent US20210395313A1, “PEPTIDE PAC1 ANTAGONISTS” (AMGEN INC., priority 2017, published 2021).

One assay has as its target T1, rat PAC1 receptor (Rattus norvegicus, UniProt P32215).
T1 construct: SHSY-5Y (human neuroblastoma cell line) and RG-2 (rat glioma cell line) cells endogenously express human and rat PAC1 receptors, respectively; endogenous in cells; host or cells: RG-2 rat glioma cells
T1 sequence (P32215 20-523): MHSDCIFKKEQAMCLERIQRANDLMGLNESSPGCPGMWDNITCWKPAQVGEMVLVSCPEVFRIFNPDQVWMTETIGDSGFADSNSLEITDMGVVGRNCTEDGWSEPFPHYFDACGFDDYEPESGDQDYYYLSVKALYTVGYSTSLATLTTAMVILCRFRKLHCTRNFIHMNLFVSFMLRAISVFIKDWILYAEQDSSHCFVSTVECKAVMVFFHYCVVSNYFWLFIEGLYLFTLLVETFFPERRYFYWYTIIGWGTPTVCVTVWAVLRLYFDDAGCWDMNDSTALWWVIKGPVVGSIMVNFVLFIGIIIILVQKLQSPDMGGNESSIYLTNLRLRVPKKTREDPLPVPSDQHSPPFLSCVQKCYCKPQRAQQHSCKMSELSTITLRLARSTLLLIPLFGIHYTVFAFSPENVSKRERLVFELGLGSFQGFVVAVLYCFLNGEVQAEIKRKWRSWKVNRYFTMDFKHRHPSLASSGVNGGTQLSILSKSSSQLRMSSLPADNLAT
Description: LANCE Ultra cAMP accumulation antagonist assay in RG-2 cells.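 Also: RG-2 rat glioma cells endogenously expressing PAC1, test peptide preincubated 30 min, then PAC1 agonist added at its EC80 for 15 min, cAMP accumulation read by LANCE Ultra.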 The assay is classed as cell-based.

For the next assay, the target named is T2, human PAC1 receptor (Homo sapiens, UniProt P41586).
T2 construct: SHSY-5Y (human neuroblastoma cell line) and RG-2 (rat glioma cell line) cells endogenously express human and rat PAC1 receptors, respectively; endogenous in cells; host or cells: SHSY-5Y human neuroblastoma cells
T2 sequence (P41586 21-468): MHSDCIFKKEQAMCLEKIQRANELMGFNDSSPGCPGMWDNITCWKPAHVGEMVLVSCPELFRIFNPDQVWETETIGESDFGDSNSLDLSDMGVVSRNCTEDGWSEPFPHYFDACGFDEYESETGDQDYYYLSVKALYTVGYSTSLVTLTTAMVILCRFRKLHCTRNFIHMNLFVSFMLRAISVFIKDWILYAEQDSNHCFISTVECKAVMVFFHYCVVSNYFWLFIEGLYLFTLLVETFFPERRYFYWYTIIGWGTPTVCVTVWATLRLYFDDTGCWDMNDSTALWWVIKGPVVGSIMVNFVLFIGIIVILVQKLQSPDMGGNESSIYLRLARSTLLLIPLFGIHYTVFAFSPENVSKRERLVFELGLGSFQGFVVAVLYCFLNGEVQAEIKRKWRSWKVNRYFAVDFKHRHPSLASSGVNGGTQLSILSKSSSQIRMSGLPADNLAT
In words: LANCE Ultra cAMP accumulation antagonist assay in SHSY-5Y cells.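 Also: inhibition of cAMP accumulation evoked by PAC1 agonist at its EC80 in SHSY-5Y cells endogenously expressing receptor, 30 min preincubation then 15 min agonist, TR-FRET readout.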 The assay is classed as cell-based.

Where a SMILES comes first, the peptide text is derived from it. Bridges are numbered along the chain shown (N, C = ends).

Description for human PAC1 receptor: In order to determine the potency of peptide antagonists at the PAC1 receptor, functional cAMP accumulation assays using LANCE Ultra cAMP assay kit to measure the agonist and antagonist activity of PAC1 peptides were used. SHSY-5Y (human neuroblastoma cell line) and RG-2 (rat glioma cell line) cells endogenously express human and rat PAC1 receptors, respectively. Agonist activity of PAC1 peptides was tested by incubating with SHSY-5Y at 2,000 cells per well or RG-2 at 5,000 cells per well for 15 minutes at room temperature. PAC1 receptor agonist PACAP38 or maxadilan was included as a positive control. The reaction was stopped by adding detection mixture, europium (Eu) chelate-labeled cAMP tracer and cAMP-specific monoclonal antibodies labeled with the ULight™ dye, to all wells followed by a 60-minute incubation at room temperature. The assay plates were then read on an EnVision instrument at an emission wavelength of 665 and 615 nm and data were analyzed using Genedata Screener or GraphPad Prism software. A similar procedure was used in the antagonist assays by using a fixed concentration of PAC1 agonist. The concentrations of agonists were chosen based on their ECK) values at PAC1 receptors in SHSY-5Y or RG-2 cells. SHSY-5Y or RG-2 cells were added into 96-well half-area white plates. Serially diluted PAC1 peptides at ten concentrations were added and incubated for 30 minutes at room temperature. PAC1 agonist at EC80 concentration was then added and further incubated for 15 minutes at room temperature. The reaction was stopped by adding detection mixture to all wells followed by a 60-minute incubation at room temperature. The assay plates were read and analyzed the same way as that of agonist assay. Cells, agonists, and PAC1 peptides were prepared in freshly made assay buffer (F-12, 0.5 mM IBMX, 0.1 or 0.4% BSA (pH 7.4)). Detection mixture was made by mixing a 1/50 dilution of the Eu-cAMP tracer stock solution in cAMP Detection Buffer and a 1/150 dilution of the ULight-anti-cAMP stock solution in cAMP Detection Buffer. Europium (Eu) chelate-labeled cAMP tracer, cAMP-specific monoclonal antibodies labeled with the ULight™ dye, BSA, and detection buffer were provided in LANCE Ultra cAMP Kit from PerkinElmer

In the case of `C#CC[C@@H]1NC(=O)[C@H](CCC(N)=O)NC(=O)[C@H](CCCCN)NC(=O)[C@H](CCC(N)=O)NC(=O)[C@@H](NC(=O)[C@H](CC(=O)O)NC(=O)[C@H](CC(=O)O)NC(=O)[C@@H](NC(=O)[C@H](C)NC(=O)[C@H](CCCCN)NC(=O)[C@H](CCCNC(=N)N)NC(=O)[C@H](Cc2ccccc2)NC(=O)[C@H](CCC(N)=O)NC(=O)[C@@H]2CSSC[C@H](N)C(=O)N[C@@H](CC(=O)O)C(=O)N[C@@H](C)C(=O)N[C@@H]([C@@H](C)O)C(=O)N2)[C@@H](C)CC)CSSC[C@@H](C(=O)N[C@@H](CCSC)C(=O)N[C@@H](CCCCN)C(=O)N[C@@H](CCC(N)=O)C(=O)N[C@@H](CCCCN)C(=O)N[C@@H](CCCCN)C(=O)N[C@@H](CCCCN)C(=O)N[C@@H](CCC(=O)O)C(=O)N[C@@H](Cc2ccccc2)C(=O)N[C@@H](CCCCN)C(=O)N[C@@H](C)C(=O)NCC(N)=O)NC(=O)[C@H](C)NC(=O)[C@H](CCCCN)NC(=O)[C@H](Cc2ccccc2)NC(=O)[C@H](C(C)C)NC(=O)[C@H](CO)NC(=O)CNC(=O)[C@@H]2CCCN2C(=O)[C@H](C(C)C)NC(=O)[C@H](CC(N)=O)NC(=O)[C@H](CO)NC(=O)[C@H](Cc2c[nH]cn2)NC(=O)[C@H](Cc2c[nH]cn2)NC1=O` [compound 32], the IC50 on rat PAC1 receptor and against human PAC1 receptor was 0.01 to 1 nM in each case.
As to `CC[C@H](C)[C@H](NC(=O)[C@H](C)NC(=O)[C@H](CCCCN)NC(=O)[C@H](CCCNC(=N)N)NC(=O)[C@H](Cc1ccccc1)NC(=O)[C@H](CCC(N)=O)NC(=O)[C@@H]1CSSC[C@H](N)C(=O)N[C@@H](CC(=O)O)C(=O)N[C@@H](C)C(=O)N[C@@H]([C@@H](C)O)C(=O)N1)C(=O)N[C@@H](CC(=O)O)C(=O)N[C@@H](CC(=O)O)C(=O)N[C@H]1CSSC[C@@H](C(=O)N[C@@H](CCSC)C(=O)N[C@@H](CCCCN)C(=O)N[C@@H](CCC(N)=O)C(=O)N[C@@H](CCCCN)C(=O)N[C@@H](CCCCN)C(=O)N[C@@H](CCCCN)C(=O)N[C@@H](CCC(=O)O)C(=O)N[C@@H](Cc2ccccc2)C(=O)N[C@@H](CCCCN)C(=O)N[C@@H](C)C(=O)NCC(=O)N[C@@H](Cc2c[nH]cn2)C(=O)O)NC(=O)[C@H](C)NC(=O)[C@H](CCCCN)NC(=O)[C@H](Cc2ccccc2)NC(=O)[C@H](C(C)C)NC(=O)[C@H](CO)NC(=O)[C@H](CO)NC(=O)[C@H](Cc2c[nH]cn2)NC(=O)[C@H](Cc2ccc(O)cc2)NC(=O)[C@H](C)NC(=O)[C@H](CCC(N)=O)NC(=O)[C@H](CCCNC(=N)N)NC(=O)[C@H](C)NC1=O` [compound 35] (H-CDATCQFRKAIDDCARQAYHSSVFKACMKQKKKEFKAGH-OH; disulfide 1-5, 14-27), the 50% inhibitory concentration (IC50) against rat PAC1 receptor and against human PAC1 receptor was 0.01 to 1 nM in each case.
For `CC[C@H](C)[C@H](NC(=O)[C@H](C)NC(=O)[C@H](CCCCN)NC(=O)[C@H](CCCNC(=N)N)NC(=O)[C@H](Cc1ccccc1)NC(=O)[C@H](CCC(N)=O)NC(=O)[C@@H]1CSSC[C@H](N)C(=O)N[C@@H](CC(=O)O)C(=O)N[C@@H](C)C(=O)N[C@@H]([C@@H](C)O)C(=O)N1)C(=O)N[C@@H](CC(=O)O)C(=O)N[C@@H](CC(=O)O)C(=O)N[C@H]1CSSC[C@@H](C(=O)N[C@@H](CCSC)C(=O)N[C@@H](CCCCN)C(=O)N[C@@H](CCC(N)=O)C(=O)N[C@@H](CCCCN)C(=O)N[C@@H](CCCCN)C(=O)N[C@@H](CCCCN)C(=O)N[C@@H](CCC(=O)O)C(=O)N[C@@H](Cc2ccccc2)C(=O)N[C@@H](CCCCN)C(=O)N[C@@H](C)C(=O)NCC(=O)N[C@@H](Cc2c[nH]cn2)C(=O)O)NC(=O)[C@H](C)NC(=O)[C@H](CCCCN)NC(=O)[C@H](Cc2ccccc2)NC(=O)[C@H](C(C)C)NC(=O)[C@H](CO)NC(=O)[C@H](CO)NC(=O)[C@H](Cc2c[nH]cn2)NC(=O)[C@H](Cc2c[nH]cn2)NC(=O)[C@H](C)NC(=O)[C@H](CCC(N)=O)NC(=O)[C@H](CCCNC(=N)N)NC(=O)[C@H](C)NC1=O` [compound 36] (H-CDATCQFRKAIDDCARQAHHSSVFKACMKQKKKEFKAGH-OH; disulfide 1-5, 14-27), the IC50 against rat PAC1 receptor and at human PAC1 receptor was 0.01 to 1 nM throughout.
